The text below walks through data of ChEMBL document CHEMBL1133263, “A simple polar deacetylated caloporoside derivative is a positive modulator of the GABA(A) chloride channel complex in cortical mammalian neurones” (Bioorg Med Chem Lett, 2000).

The species named for the test is Rattus norvegicus. Nature of the test: Concentration required reduce reversibly the incidence of both spontaneous excitatory post-synaptic currents and inhibitory post-synaptic currents. In kind it is functional.

The structures appear in SMILES notation.

`CCCCCCCCO[C@H]1O[C@@H](CO)[C@@H](O)[C@H](O)[C@H]1O`: the Concentration came to 100 µM.
